Tested on: PBMC
Assay: 193 ssRNA 4mer-motif library screen: IL-12 (IL-12p40) production in PBMC of six donors, poly-L-Arg complexation, ELISA at 44 hours, IL-12 index and adjusted IL-12 index
Type: cell-based, human
Parameters: key to Adjusted IL-12 index Mean: IL-12 index (ratio to 9.2sense) minus donor mean, averaged over 6 donors
Settings: 193 ssRNA oligonucleotide library; data from six individual donors summarized; ascending order
Protocol: FIG. 9: PBMC of six different healthy donors were isolated and stimulated with poly-L-arginine complexed ssRNA oligonucleotides in duplicates. 44 hours after stimulation IL-12p40 production was assessed in supernatant via ELISA. For all tested ssRNA oligonucleotides (table 3), the mean values of the measured duplicates were normalized to the positive control ssRNA oligonucleotide 9.2sense (5′-AGCUUAACCUGUCCUUCAA (SEQ ID NO: 194)) by dividing the mean value of tested oligonucleotide by the mean value of 9.2sense (=IL-12 index of a given oligonucleotide). Next, all individual IL-12 indices were adjusted to the mean value of all IL-12 indices by subtracting the mean value of all IL-12 indices from the individual IL-12 index of a given oligonucleotide (=adjusted IL-12 index). Data from six individual donors were summarized and were assorted in ascending order displaying the corresponding SEM (for a complete listing including numerical data see table 4). FIG. 9A discloses SEQ ID NOS 460-509, respectively, in order of appearance. FIG. 9B discloses SEQ ID NOS 510-559, respectively, in order of appearance. FIG. 9C discloses SEQ ID NOS 560-609, respectively, in order of appearance. FIG. 9D discloses SEQ ID NOS 610-652, respectively, in order of appearance.
All 193 ssRNA oligonucleotides were tested on PBMC of six individual healthy donors using poly-L-Arg for complexation. At 44 hours after stimulation with RNA oligonucleotides, supernatants were collected and IL-12 production was measured by ELISA. Prior to statistical analysis the raw data were processed as follows: for each cell culture plate the mean IL-12 value of the experimental duplicates for each tested ssRNA oligonucleotide were normalized to the ssRNA oligonucleotide RNA9.2sense (5′-AGCUUAACCUGUCCUUCAA-3′ (SEQ ID NO: 194)). This standard RNA oligonucleotide was included as a positive control on all cell culture plates. Normalization was performed by calculating the ratio of IL-12 induced by the tested oligonucleotide and IL-12 induced by the standard oligonucleotide RNA9.2sense. Thus, for each tested oligonucleotide in an individual donor a mean ratio of IL-12 induction was obtained. In the following, this mean of the ratios is referred to as IL-12 index (one value of IL-12 index per donor). […] The corresponding IL-12 index of oligonucleotide ANP175 for donor 3 was calculated to be 1.90 (=1725 pg/ml divided by 908 pg/ml).
Next, the means of all IL-12 indices for every individual donor were calculated. Then the adjusted IL-12 indices were calculated as IL-12 index minus the mean of all IL-12 indices of one individual donor. […] The adjusted IL-12 index of ANP175 was calculated: 1.90 minus 0.44=1.46. The adjusted IL-12 indices from all six donors were summarized by calculating the means and the corresponding standard error of mean. The data are depicted in ascending order (FIG. 9A, B, C, D). The adjusted IL-12 indices of the top thirty ssRNA oligonucleotides of all six donors were compared using a two-tailed Student's t-test (FIG. 10). For most combinations tested, a significant difference was observed when the interval between the analyzed pairs was at least eight or nine places in the assortment.

Compared with “AAAAAAAACACAAAAAAAA (RNA, backbone not given here) [ANP-Oligo 014]”, “AAAAAAAGUCUAAAAAAAA (RNA, backbone not given here) [ANP-Oligo 139]” is higher in “Adjusted IL-12 index Mean” value: −0.64 for the first, 0.05 for the second.

Compared with “AAAAAAAUACCAAAAAAAA (RNA, backbone not given here) [ANP-Oligo 149]”, “AAAAAAAUACUAAAAAAAA (RNA, backbone not given here) [ANP-Oligo 151]” is higher in “Adjusted IL-12 index Mean” value: 0.27 for the first, 0.3 for the second.

Going from “AAAAAAAUAUCAAAAAAAA (RNA, backbone not given here) [ANP-Oligo 155]” to “AAAAAAAUGGCAAAAAAAA (RNA, backbone not given here) [ANP-Oligo 176]”, the “Adjusted IL-12 index Mean” value rises from 0.33 to 2.41.

First: AAAAAAAAGCCAAAAAAAA (RNA, backbone not given here) [ANP-Oligo 029]
Second: AAAAAAACCUUAAAAAAAA (RNA, backbone not given here) [ANP-Oligo 073]
The “Adjusted IL-12 index Mean” value of the first is lower: −0.66 for the first, −0.28 for the second.

First: AAAAAAAUCCGAAAAAAAA (RNA, backbone not given here) [ANP-Oligo 162]
Second: AAAAAAAUGCCAAAAAAAA (RNA, backbone not given here) [ANP-Oligo 173]
The “Adjusted IL-12 index Mean” value of the first is lower: −0.5 for the first, 1.22 for the second.

First: AAAAAAAGAUGAAAAAAAA (RNA, backbone not given here) [ANP-Oligo 108]
Second: AAAAAAAUUGCAAAAAAAA (RNA, backbone not given here) [ANP-Oligo 188]
The “Adjusted IL-12 index Mean” value of the first is lower: 0.08 for the first, 1.62 for the second.

Compared with “AAAAAAAGGAUAAAAAAAA (RNA, backbone not given here) [ANP-Oligo 124]”, “AAAAAAACGAGAAAAAAAA (RNA, backbone not given here) [ANP-Oligo 075]” is lower in “Adjusted IL-12 index Mean” value: 0.63 for the first, −0.65 for the second.

First: AAAAAAAGAACAAAAAAAA (RNA, backbone not given here) [ANP-Oligo 098]
Second: AAAAAAACAGCAAAAAAAA (RNA, backbone not given here) [ANP-Oligo 056]
The “Adjusted IL-12 index Mean” value of the first is lower: −0.6 for the first, −0.54 for the second.

First: AAAAAAACGGUAAAAAAAA (RNA, backbone not given here) [ANP-Oligo 082]
Second: AAAAAAAGCGUAAAAAAAA (RNA, backbone not given here) [ANP-Oligo 118]
The “Adjusted IL-12 index Mean” value of the first is higher: 0.29 for the first, 0.1 for the second.

First: AAAAAAAACAAAAAAAAAA (RNA, backbone not given here) [ANP-Oligo 002]
Second: AAAAAAAUGUUAAAAAAAA (RNA, backbone not given here) [ANP-Oligo 181]
The “Adjusted IL-12 index Mean” value of the first is lower: −0.57 for the first, 0.79 for the second.

First: AAAAAAAUCUCAAAAAAAA (RNA, backbone not given here) [ANP-Oligo 167]
Second: AAAAAAAAUUCAAAAAAAA (RNA, backbone not given here) [ANP-Oligo 047]
The “Adjusted IL-12 index Mean” value of the first is higher: 0.37 for the first, −0.45 for the second.

Going from “AAAAAAAGUAUAAAAAAAA (RNA, backbone not given here) [ANP-Oligo 136]” to “AAAAAAAACCAAAAAAAAA (RNA, backbone not given here) [ANP-Oligo 005]”, the “Adjusted IL-12 index Mean” value falls from 1.04 to −0.62.

First: AAAAAAACUAGAAAAAAAA (RNA, backbone not given here) [ANP-Oligo 087]
Second: AAAAAAAGGACAAAAAAAA (RNA, backbone not given here) [ANP-Oligo 122]
The “Adjusted IL-12 index Mean” value of the first is higher: −0.03 for the first, −0.43 for the second.

Going from “AAAAAAAGGAGAAAAAAAA (RNA, backbone not given here) [ANP-Oligo 123]” to “AAAAAAAACCCAAAAAAAA (RNA, backbone not given here) [ANP-Oligo 017]”, the “Adjusted IL-12 index Mean” value falls from −0.51 to −0.66.

Compared with “AAAAAAAUUGUAAAAAAAA (RNA, backbone not given here) [ANP-Oligo 190]”, “AAAAAAACGGCAAAAAAAA (RNA, backbone not given here) [ANP-Oligo 080]” is lower in “Adjusted IL-12 index Mean” value: 1.6 for the first, −0.65 for the second.

Going from “AAAAAAAGUCCAAAAAAAA (RNA, backbone not given here) [ANP-Oligo 137]” to “AAAAAAAUGAUAAAAAAAA (RNA, backbone not given here) [ANP-Oligo 172]”, the “Adjusted IL-12 index Mean” value rises from −0.27 to 1.92.

Compared with “AAAAAAACGGGAAAAAAAA (RNA, backbone not given here) [ANP-Oligo 081]”, “AAAAAAAAGCUAAAAAAAA (RNA, backbone not given here) [ANP-Oligo 031]” is higher in “Adjusted IL-12 index Mean” value: −0.63 for the first, −0.32 for the second.

Going from “AAAAAAAGAGCAAAAAAAA (RNA, backbone not given here) [ANP-Oligo 104]” to “AAAAAAAUUUGAAAAAAAA (RNA, backbone not given here) [ANP-Oligo 192]”, the “Adjusted IL-12 index Mean” value rises from −0.61 to 0.65.

Going from “AAAAAAAAGACAAAAAAAA (RNA, backbone not given here) [ANP-Oligo 026]” to “AAAAAAACAGUAAAAAAAA (RNA, backbone not given here) [ANP-Oligo 058]”, the “Adjusted IL-12 index Mean” value rises from −0.6 to 0.22.

Going from “AAAAAAAUGGGAAAAAAAA (RNA, backbone not given here) [ANP-Oligo 177]” to “AAAAAAAGCUUAAAAAAAA (RNA, backbone not given here) [ANP-Oligo 121]”, the “Adjusted IL-12 index Mean” value rises from −0.35 to 0.24.

First: AAAAAAAGAAUAAAAAAAA (RNA, backbone not given here) [ANP-Oligo 100]
Second: AAAAAAAAGUGAAAAAAAA (RNA, backbone not given here) [ANP-Oligo 036]
The “Adjusted IL-12 index Mean” value of the first is higher: 0.01 for the first, −0.12 for the second.

First: AAAAAAACACGAAAAAAAA (RNA, backbone not given here) [ANP-Oligo 054]
Second: AAAAAAACAGGAAAAAAAA (RNA, backbone not given here) [ANP-Oligo 057]
The “Adjusted IL-12 index Mean” value of the first is lower: −0.65 for the first, −0.6 for the second.

First: AAAAAAAAUUAAAAAAAAA (RNA, backbone not given here) [ANP-Oligo 013]
Second: AAAAAAAAGCAAAAAAAAA (RNA, backbone not given here) [ANP-Oligo 008]
The “Adjusted IL-12 index Mean” value of the first is higher: −0.09 for the first, −0.61 for the second.

Going from “AAAAAAACGCCAAAAAAAA (RNA, backbone not given here) [ANP-Oligo 077]” to “AAAAAAAAGCGAAAAAAAA (RNA, backbone not given here) [ANP-Oligo 030]”, the “Adjusted IL-12 index Mean” value rises from −0.62 to −0.6.

Compared with “AAAAAAAACUAAAAAAAAA (RNA, backbone not given here) [ANP-Oligo 007]”, “AAAAAAAUGUGAAAAAAAA (RNA, backbone not given here) [ANP-Oligo 180]” is higher in “Adjusted IL-12 index Mean” value: −0.56 for the first, 1.31 for the second.

Compared with “AAAAAAAUACGAAAAAAAA (RNA, backbone not given here) [ANP-Oligo 150]”, “AAAAAAAAUUGAAAAAAAA (RNA, backbone not given here) [ANP-Oligo 048]” is lower in “Adjusted IL-12 index Mean” value: −0.3 for the first, −0.35 for the second.

Going from “AAAAAAAGACCAAAAAAAA (RNA, backbone not given here) [ANP-Oligo 101]” to “AAAAAAAUCGUAAAAAAAA (RNA, backbone not given here) [ANP-Oligo 166]”, the “Adjusted IL-12 index Mean” value rises from −0.6 to 4.42.

First: AAAAAAAUGGUAAAAAAAA (RNA, backbone not given here) [ANP-Oligo 178]
Second: AAAAAAAGUCGAAAAAAAA (RNA, backbone not given here) [ANP-Oligo 138]
The “Adjusted IL-12 index Mean” value of the first is higher: 3.26 for the first, 0.02 for the second.

First: AAAAAAAUGACAAAAAAAA (RNA, backbone not given here) [ANP-Oligo 170]
Second: AAAAAAAUCGCAAAAAAAA (RNA, backbone not given here) [ANP-Oligo 164]
The “Adjusted IL-12 index Mean” value of the first is higher: 0.86 for the first, −0.1 for the second.

Same assay, conditions: summarized from all six donors

First: AAAAAAAUUGUAAAAAAAA (RNA, backbone not given here) [ANP-Oligo 190]
Second: AAAAAAAUCGUAAAAAAAA (RNA, backbone not given here) [ANP-Oligo 166]
The “adjusted IL-12 index” value of the first is lower: 1.6 for the first, 4.42 for the second.

With “AAAAAAAUGGUAAAAAAAA (RNA, backbone not given here) [ANP-Oligo 178]” the “adjusted IL-12 index” value was 3.26.
